{"source": "patent EP2951180B1", "about": "“2,6,7,8 SUBSTITUTED PURINES AS HDM2 INHIBITORS” (Merck Sharp & Dohme Corp., priority 2013, dated 2014)", "biological_target": "T1, HDM2 (Homo sapiens, UniProt Q00987)", "T1 construct": "Thioredoxin (N); made in house; host or cells: E. coli strain BL21(DE3)Rosetta", "T1 sequence (Q00987 17-125)": "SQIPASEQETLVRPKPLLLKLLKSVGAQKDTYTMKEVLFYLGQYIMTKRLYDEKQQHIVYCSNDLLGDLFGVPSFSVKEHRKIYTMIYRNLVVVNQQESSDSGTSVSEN", "assay": "HDM2 FRET assay (inhibition of binding of FITC labeled p53-pocket peptide to HDM2)", "details": "for inhibition at 1 µM: read-out: inh. at 1000 nM (FRET); for IC50: read-out: FRET IC50", "outline": "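Compounds were tested in 10-point serial dilution against 0.5 nM recombinant HDM2 binding 3 nM fluorescein-labeled p53-pocket peptide. Detection used 0.25 nM terbium cryptate anti-6xHis antibody in PBS buffer containing 0.01% BSA and 0.01% Tween-20.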", "key": {"[1]": {"details": "0.5 nM HDM2 (residues 17 to 125), 3nM peptide, two hour incubation at room temperature"}}, "note": "Read-outs that look alike come from different tables or passages of the source."}
{"smiles": "Cc1cccc(-c2nc3nc(C(=O)O)nc(N(C)C(C)C4CC4)c3n2Cc2ccc(C(F)(F)F)cc2)c1", "note": "(centres unmarked) [Example 6.88, 6-[(1-cyclopropylethyl)(methyl)amino]-8-(3-methylphenyl)-7-[4-(trifluoromethyl)benzyl]-7H-purine-2-carboxylic acid]", "values": [{"measurement": "inhibition at 1 µM", "value": 33, "unit": "%"}]}
{"smiles": "C[C@@H](Nc1nc(-c2noc(=O)[nH]2)nc2nc(-c3cc(C(C)(C)O)c(F)cn3)n(C[C@H]3CC[C@H](C)CC3)c12)C1CCC1", "note": "[Example 15.9, 3-(6-(((R)-1-cyclobutylethyl)amino)-8-(5-fluoro-4-(2-hydroxypropan-2-yl)pyridin-2-yl)-7-((trans-4-methylcyclohexyl)methyl)-7H-purin-2-yl)-1,2,4-oxadiazol-5(4H)-one]", "values": [{"measurement": "IC50", "setting": "[1]", "value": 3.95, "unit": "nM"}]}
{"smiles": "Cc1cccc(-c2nc3nc(C(=O)O)nc(N(C)CC4CC4(C)C)c3n2Cc2ccc(C(F)(F)F)cc2)c1", "note": "(centres unmarked) [Example 6.90, 6-{[(2,2-dimethylcyclopropyl)methyl](methyl)amino}-8-(3-methylphenyl)-7-[4-(trifluoromethyl)benzyl]-7H-purine-2-carboxylic acid]", "values": [{"measurement": "inhibition at 1 µM", "value": 34, "unit": "%"}]}
{"smiles": "C[C@@H](Nc1nc(-c2noc(=O)[nH]2)nc2nc(N3CCCC3Cc3cccnc3)n(Cc3ccc(C(F)(F)F)cc3)c12)C1CCC1", "note": "(stereo partly drawn) [Example 9.105, 3-(6-{[(1R)-1-cyclobutylethyl]amino}-8-[2-(pyridin-3-ylmethyl)pyrrolidin-1-yl]-7-[4-(trifluoromethyl)benzyl]-7H-purin-2-yl)-1,2,4-oxadiazol-5(4H)-one]", "values": [{"measurement": "IC50", "setting": "Table 9", "value": 14, "unit": "nM"}]}
{"smiles": "C[C@@H](Nc1nc(-c2noc(=O)[nH]2)nc2nc(C3(c4ccccc4)CCO3)n(C[C@H]3CC[C@H](C)CC3)c12)C1CCC1", "note": "(stereo partly drawn) [Example 22.81, 3-[6-{[(1R)-1-cyclobutylethyl]amino}-7-[(trans-4-methylcyclohexyl)methyl]-8-(2-phenyloxetan-2-yl)-7H-purin-2-yl]-1,2,4-oxadiazol-5(4H)-one]", "values": [{"measurement": "IC50", "setting": "Table 22", "value": 11, "unit": "nM"}]}
{"smiles": "CCNC(=O)c1nc(N[C@H](C)C2CCC2)c2c(n1)nc(N1CCOC[C@H]1c1ccccc1)n2C[C@H]1CC[C@H](C)CC1", "note": "[Example 12.17, 6-{[(1R)-1-cyclobutylethyl]amino}-N-ethyl-7-[(trans-4-methylcyclohexyl)methyl]-8-[(3R)-3-phenylmorpholin-4-yl]-7H-purine-2-carboxamide]", "values": [{"measurement": "IC50", "setting": "[1]", "value": 1.63, "unit": "nM"}]}
{"smiles": "C[C@@H](Nc1nc(-c2noc(=O)[nH]2)nc2nc(N3CCC[C@H]3CF)n(C[C@H]3CC[C@H](C)CC3)c12)C1CCC1", "note": "[Example 11.8, 3-(6-{[(1R)-1-cyclobutylethyl]amino}-8-[(2S)-2-(fluoromethyl)pyrrolidin-1-yl]-7-[(trans-4-methylcyclohexyl)methyl]-7H-purin-2-yl)-1,2,4-oxadiazol-5(4H)-one]", "values": [{"measurement": "IC50", "setting": "Table 11", "value": 2.36, "unit": "nM"}]}
{"smiles": "CCCCCN(C)c1nc(C(=O)O)nc2nc(-c3cccc(C)c3)n(Cc3ccc(C(F)(F)F)cc3)c12", "note": "[Example 6.91, 6-[methyl(pentyl)amino] -8-(3-methylphenyl)-7-[4-(trifluoromethyl)benzyl]-7H-purine-2-carboxylic acid]", "values": [{"measurement": "IC50", "setting": "Table 6", "value": 731, "unit": "nM"}]}
{"smiles": "C[C@@H](Nc1nc(-c2noc(=O)[nH]2)nc2nc(N3CCOC[C@H]3c3ccccn3)n(C[C@H]3CC[C@H](C)CC3)c12)C1CCC1", "note": "[Example 11.142, 3-(6-{[(1R)-1-cyclobutylethyl]amino}-7-[(trans-4-methylcyclohexyl)methyl]-8-[(3R)-3-pyridin-2-ylmorpholin-4-yl]-7H-purin-2-yl)-1,2,4-oxadiazol-5(4H)-one]", "values": [{"measurement": "IC50", "setting": "Table 11", "value": 0.774, "unit": "nM"}]}
{"smiles": "CCC1CC=C(Cn2c(-c3cc(C(C)C)ccn3)nc3nc(C(=O)O)nc(N[C@H](C)C4CCC4)c32)CC1", "note": "(stereo partly drawn) [Example 18.23, 6-{[(1R)-1-cyclobutylethyl]amino}-7-[(4-ethylcyclohex-1-en-1-yl)methyl]-8-[4-(1-methylethyl)pyridin-2-yl]-7H-purine-2-carboxylic acid]", "values": [{"measurement": "IC50", "setting": "Table 18", "value": 26.4, "unit": "nM"}]}
{"smiles": "C[C@@H]1[C@@H](C)OCCN1c1nc2nc(-c3noc(=O)[nH]3)nc(-c3cncc(Cl)c3)c2n1C[C@H]1CC[C@H](C)CC1", "note": "[Example 16.136, 3-{6-(5-chloropyridin-3-yl)-8-[(2R,3R)-2,3-dimethylmorpholin-4-yl]-7-[(trans-4-methylcyclohexyl)methyl]-7H-purin-2-yl}-1,2,4-oxadiazol-5(4H)-one]", "values": [{"measurement": "IC50", "setting": "[1]", "value": 7.19, "unit": "nM"}]}
{"smiles": "CC(C)c1ccnc(-c2nc3nc(C(=O)O)nc(N(C)[C@H](C)C4CCC4)c3n2C[C@H]2CC[C@H](C)CC2)c1", "note": "[Example 15.2, 6-(((R)-1-cyclobutylethyl)(methyl)amino)-8-(4-isopropylpyridin-2-yl)-7-((trans-4-methylcyclohexyl)methyl)-7H-purine-2-carboxylic acid]", "values": [{"measurement": "IC50", "setting": "[1]", "value": 10.5, "unit": "nM"}]}
{"smiles": "C[C@@H]1COC[C@@H](C)N1c1nc2nc(-c3n[nH]c(=O)o3)nc(-c3cccc(Cl)c3)c2n1C[C@H]1CC[C@H](C)CC1", "note": "[Example 16.147, 5-{6-(3-chlorophenyl)-8-[(3R,5R)-3,5-dimethylmorpholin-4-yl]-7-[(trans-4-methylcyclohexyl)methyl]-7H-purin-2-yl}-1,3,4-oxadiazol-2(3H)-one]", "values": [{"measurement": "IC50", "setting": "[1]", "value": 5.52, "unit": "nM"}]}
{"smiles": "C[C@H]1CC[C@H](Cn2c(N3CCOCC34CCC4)nc3nc(-c4noc(=O)[nH]4)nc(-c4cccc(Cl)c4)c32)CC1", "note": "[Example 16.80, 3-[6-(3-chlorophenyl)-7-[(trans-4-methylcyclohexyl)methyl]-8-(8-oxa-5-azaspiro[3.5]non-5-yl)-7H-purin-2-yl]-1,2,4-oxadiazol-5(4H)-one]", "values": [{"measurement": "IC50", "setting": "[1]", "value": 8.7, "unit": "nM"}]}
{"smiles": "Cc1cccc(-c2nc3nc(C(=O)O)nc(N[C@@H](C)c4ccccc4)c3n2Cc2ccc(C(F)(F)F)cc2)c1", "note": "[Example 6.31, 8-(3-methylphenyl)-6-{[(1S)-1-phenylethyl]amino}-7-[4-(trifluoromethyl)benzyl]-7H-purine-2-carboxylic acid]", "values": [{"measurement": "IC50", "setting": "Table 6", "value": 4300, "unit": "nM"}]}
{"smiles": "C[C@@H](Nc1nc(-c2noc(=O)[nH]2)nc2nc(N(C)C3CCc4ccccc43)n(Cc3ccc(C(F)(F)F)cc3)c12)C1CCC1", "note": "(stereo partly drawn) [Example 9.102, 3-(6-{[(1R)-1-cyclobutylethyl]amino}-8-[2,3-dihydro-1H-inden-1-yl(methyl)amino]-7-[4-(trifluoromethyl)benzyl]-7H-purin-2-yl)-1,2,4-oxadiazol-5(4H)-one]", "values": [{"measurement": "IC50", "setting": "Table 9", "value": 60.7, "unit": "nM"}]}
{"smiles": "C[C@@H](Nc1nc(C(=O)O)nc2nc(N3CCCC4CCCCC43)n(C[C@H]3CC[C@H](C)CC3)c12)C1CCC1", "note": "(stereo partly drawn) [Example 11.23, 6-{[(1R)-1-cyclobutylethyl]amino}-7-[(trans-4-methylcyclohexyl)methyl]-8-(octahydroquinolin-1(2H)-yl)-7H-purine-2-carboxylic acid]", "values": [{"measurement": "IC50", "setting": "Table 11", "value": 3.11, "unit": "nM"}]}
{"smiles": "C[C@@H]1OCCN(c2nc3nc(-c4n[nH]c(=O)o4)nc(-c4cncc(Cl)c4)c3n2C[C@H]2CC[C@H](C)CC2)[C@@H]1c1ccccc1", "note": "[Example 16.130, 5-{6-(5-chloropyridin-3-yl)-7-[(trans-4-methylcyclohexyl)methyl]-8-[(2S,3R)-2-methyl-3-phenylmorpholin-4-yl]-7H-purin-2-yl}-1,3,4-oxadiazol-2(3H)-one]", "values": [{"measurement": "IC50", "setting": "[1]", "value": 28.9, "unit": "nM"}]}
{"smiles": "Cc1cccc(-c2nc3nc(C(=O)O)nc(N(C)CC(C)C)c3n2Cc2ccc(C(F)(F)F)cc2)c1", "note": "[Example 6.71, 6-[methyl(2-methylpropyl)amino]-8-(3-methylphenyl)-7-[4-(trifluoromethyl)benzyl]-7H-purine-2-carboxylic acid]", "values": [{"measurement": "IC50", "setting": "Table 6", "value": 940, "unit": "nM"}]}
{"smiles": "Cc1cccc(-c2nc3nc(C(=O)O)nc(N[C@H](C)C4CC4)c3n2Cc2ccc(Cl)c(Cl)c2)c1", "note": "[Example 6.16, 6-{[(1R)-1-cyclopropylethyl]amino}-7-(3,4-dichlorobenzyl)-8-(3-methylphenyl)-7H-purine-2-carboxylic acid]", "values": [{"measurement": "IC50", "setting": "Table 6", "value": 462, "unit": "nM"}]}
{"smiles": "C[C@@H](Nc1nc(C(=O)O)nc2nc(N3CCCCC3C3CCCCC3)n(Cc3ccc(C(F)(F)F)cc3)c12)C1CCC1", "note": "(stereo partly drawn) [Example 9.122, 6-{[(1R)-1-cyclobutylethyl]amino}-8-(2-cyclohexylpiperidin-1-yl)-7-[4-(trifluoromethyl)benzyl]-7H-purine-2-carboxylic acid]", "values": [{"measurement": "IC50", "setting": "Table 9", "value": 4.59, "unit": "nM"}]}
{"smiles": "C[C@@H](Nc1nc(-c2n[nH]c(=O)o2)nc2nc(N3CCC[C@H]3C(F)(F)F)n(C[C@H]3CC[C@H](C)CC3)c12)C1CCC1", "note": "[Example 11.137, 5-(6-{[(1R)-1-cyclobutylethyl]amino}-7-[(trans-4-methylcyclohexyl)methyl]-8-[(2S)-2-(trifluoromethyl)pyrrolidin-1-yl]-7H-purin-2-yl)-1,3,4-oxadiazol-2(3H)-one]", "values": [{"measurement": "IC50", "setting": "Table 11", "value": 0.881, "unit": "nM"}]}
{"smiles": "CCN(C)c1nc(C(=O)O)nc2nc(-c3cccc(C)c3)n(Cc3ccc(C(F)(F)F)cc3)c12", "note": "[Example 6.59, 6-[ethyl(methyl)amino]-8-(3-methylphenyl)-7-[4-(trifluoromethyl)benzyl]-7H-purine-2-carboxylic acid]", "values": [{"measurement": "IC50", "setting": "Table 6", "value": 1000, "unit": "nM"}]}
{"smiles": "C[C@@H](Nc1nc(C(=O)O)nc2nc(N3CCOC[C@H]3c3ccccc3)n(Cc3ccc(C(F)(F)F)cc3)c12)C1CCC1", "note": "[Example 9.50, 6-{[(1R)-1-cyclobutylethyl]amino}-8-[(3R)-3-phenylmorpholin-4-yl]-7-[4-(trifluoromethyl)benzyl]-7H-purine-2-carboxylic acid]", "values": [{"measurement": "IC50", "setting": "Table 9", "value": 1.76, "unit": "nM"}]}
{"smiles": "C[C@@H](Nc1nc(S(=O)(=O)CC(F)(F)F)nc2nc(N3CCOC[C@H]3c3ccccc3)n(C[C@H]3CC[C@H](C)CC3)c12)C1CCC1", "note": "[Example 14.15, N-[(1R)-1-cyclobutylethyl]-7-[(trans-4-methylcyclohexyl)methyl]-8-[(3R)-3-phenylmorpholin-4-yl]-2-[(2,2,2-trifluoroethyl)sulfonyl]-7H-purin-6-amine]", "values": [{"measurement": "IC50", "setting": "[1]", "value": 220, "unit": "nM"}]}
{"smiles": "C[C@H]1CC[C@H](Cn2c(N3CCOC[C@H]3c3ccccc3)nc3nc(-c4noc(=O)[nH]4)nc(-c4cccc(C(F)F)c4)c32)CC1", "note": "[Example 16.31, 3-{6-[3-(difluoromethyl)phenyl]-7-[(trans-4-methylcyclohexyl)methyl]-8-[(3R)-3-phenylmorpholin-4-yl]-7H-purin-2-yl}-1,2,4-oxadiazol-5(4H)-one]", "values": [{"measurement": "IC50", "setting": "[1]", "value": 7.11, "unit": "nM"}]}
